“And” between values parts separate entries of the source, which are not always exact repeats. Identical values can stand only once.
How the values were obtained:
[1] = xn = mol fraction of the nth substance listed; conditions: 101.33 kPa, Liquid; for viscosity: Capillary tube (Ostwald / Ubbelohde) method
[2] = 101.33 kPa, Liquid; for viscosity: Capillary tube (Ostwald / Ubbelohde) method

COC(=O)OC [dimethyl carbonate] + C1CCCC1
[1], x1 = 1
Conditions | mass density [kg/m3] | speed of sound [m/s] | viscosity [mPa·s]
293.15 K | 1069.9 | 1220 | 0.623
298.15 K | 1063.33 | 1198 | 0.584
303.15 K | 1056.71 | 1177 | 0.549
308.15 K | 1050.07 | 1155 | 0.517
313.15 K | 1043.39 | 1134 | 0.488

COC(=O)OC [dimethyl carbonate]
[2]
Conditions | mass density [kg/m3] | speed of sound [m/s] | viscosity [mPa·s]
293.15 K | 1069.9 | 1220 | 0.623
298.15 K | 1063.33 | 1198 | 0.584
303.15 K | 1056.71 | 1177 | 0.549
308.15 K | 1050.07 | 1155 | 0.517
313.15 K | 1043.39 | 1134 | 0.488

CC1CCCCC1 [methylcyclohexane] + CCOC(=O)OCC
[1], x2 = 0
Conditions | speed of sound [m/s] | viscosity [mPa·s]
293.15 K | 1237 | 0.729
298.15 K | 1215 | 0.681
303.15 K | 1193 | 0.637
308.15 K | 1172 | 0.598
313.15 K | 1150 | 0.562

CCOC(=O)OCC [diethyl carbonate]
[2]
Conditions | mass density [kg/m3] | speed of sound | viscosity [mPa·s]
293.15 K | 974.8 | 1197 m/s and 1198 m/s | 0.809
298.15 K | 969.21 | 1177 m/s | 0.75
303.15 K | 963.58 | 1156 m/s and 1157 m/s | 0.702
308.15 K | 957.93 | 1136 m/s | 0.658
313.15 K | 952.26 | 1116 m/s | 0.618

CC1CCCCC1 [methylcyclohexane]
[2]
Conditions | speed of sound [m/s] | viscosity [mPa·s]
293.15 K | 1237 | 0.729
298.15 K | 1215 | 0.681
303.15 K | 1193 | 0.637
308.15 K | 1172 | 0.598
313.15 K | 1150 | 0.562

C1CCCC1 [cyclopentane]
[2]
Conditions | mass density [kg/m3] | speed of sound [m/s] | viscosity [mPa·s]
293.15 K | 744.43 | 1232 | 0.438
298.15 K | 739.47 | 1206 | 0.415
303.15 K | 734.47 | 1180 | 0.394
308.15 K | 729.42 | 1154 | 0.374
313.15 K | 724.32 | 1129 | 0.355

CCOC(=O)OCC [diethyl carbonate] + C1CCCC1
[1], x1 = 1
Conditions | mass density [kg/m3] | speed of sound [m/s] | viscosity [mPa·s]
293.15 K | 974.8 | 1197 | 0.809
298.15 K | 969.21 | 1177 | 0.75
303.15 K | 963.58 | 1156 | 0.702
308.15 K | 957.93 | 1136 | 0.658
313.15 K | 952.26 | 1116 | 0.618

Reference: the NIST ThermoML archive (doi:10.1021/je049895b)
